The results in this text go back to PubChem BioAssay (NCI).

Test systems include DMS 273 small cell lung; LOX IMVI melanoma; M14 melanoma; SK-MEL-28 melanoma; SK-OV-3 ovarian; SNB-78 CNS; SW-620 colon; UACC-257 melanoma; HOP-62 NSCLC; MCF7 breast.
Common to all, as to test: NCI-60 cell line screen, 48 h

Values joined by “and” are separate entries in the source; they are usually repeats but may differ in a detail not shown here. Equal values may be shown once.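 Briefly, cells in 96-well plates were exposed to five compound concentrations for 48 h, and endpoints were estimated by linear interpolation. Abbreviation: GI50, concentration required for 50% inhibition of growth. TGI is the concentration that stops growth completely.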

`O=C1C2c3[nH]c4ccccc4c3[C@@H]3CCCCCCCCCCC3C2C(=O)N1c1ccccc1` (stereo partly specified): the TGI is greater than 100 µM in the assay on DMS 273 small cell lung; 43.3 µM in the assay with LOX IMVI melanoma; 34.3 µM in the assay on M14 melanoma; 58.8 µM in the assay with SK-MEL-28 melanoma; 23 µM in the assay on SK-OV-3 ovarian; 24.7 µM in the assay with SNB-78 CNS. Also, in the assay on SW-620 colon, the TGI was determined as 35.5 µM.

Consider `C[Si](C)(C)/C=C/CCC(C=O)(CCCl)c1ccccc1` (stereo unspecified), for which the TGI in the assay with DMS 273 small cell lung was 55.2 µM; with LOX IMVI melanoma, 36.2 µM; with M14 melanoma it was 86.6 µM; in the assay on SK-MEL-28 melanoma, greater than 100 µM; in the assay on SK-OV-3 ovarian it was greater than 100 µM; in the assay with SNB-78 CNS, 78.9 µM. Further, the TGI with SW-620 colon is greater than 100 µM; in the assay with UACC-257 melanoma, 75.8 µM.

As to `COc1ccc2cccc(C(=O)c3ccc(C)c4c3CCC4)c2c1`, the TGI was 70 µM in the assay with DMS 273 small cell lung; 69.3 µM with HOP-62 NSCLC; 38.8 µM with LOX IMVI melanoma; 57.6 µM with M14 melanoma; greater than 100 µM in the assay with SK-MEL-28 melanoma; greater than 100 µM in the assay on SK-OV-3 ovarian. In addition, the TGI with SW-620 colon and in the assay on UACC-257 melanoma was greater than 100 µM throughout.

Turning to `COc1ccc(-c2ccc3c(NC(=O)C4CC4)n[nH]c3n2)cc1`, the GI50 with HOP-62 NSCLC was 7.64 µM; in the assay with LOX IMVI melanoma, greater than 25 µM; with M14 melanoma it was greater than 25 µM; with MCF7 breast, greater than 25 µM; in the assay with SK-MEL-28 melanoma, greater than 25 µM; with SK-OV-3 ovarian, 19.6 µM. The GI50 in the assay with SW-620 colon and with UACC-257 melanoma was greater than 25 µM in each case. Further, the TGI in the assay on HOP-62 NSCLC is greater than 22 µM; in the assay on LOX IMVI melanoma, greater than 25 µM; in the assay on M14 melanoma, greater than 25 µM; with MCF7 breast it was greater than 25 µM; with SK-MEL-28 melanoma, greater than 25 µM; in the assay on SK-OV-3 ovarian, greater than 25 µM. Moreover, the TGI with SW-620 colon and in the assay with UACC-257 melanoma was greater than 25 µM in each case.

Regarding `CC(=O)OCC1OC(OC2C(COC(C)=O)OC(OCCC[S-])C(OC(C)=O)C2OC(C)=O)C(OC(C)=O)C(OC(C)=O)C1OC(C)=O.[Au+].c1ccc(CN2[CH-]N(Cc3ccccc3)C(c3ccccc3)=C2c2ccccc2)cc1` (stereo unspecified), the GI50 is 3.75 µM in the assay on HOP-62 NSCLC; 3.42 µM with LOX IMVI melanoma; 3.26 µM with M14 melanoma; 2.44 µM in the assay on MCF7 breast; 3.53 µM with SK-MEL-28 melanoma; 3.06 µM in the assay on SK-OV-3 ovarian. In addition, the GI50 is 3.68 µM in the assay on SW-620 colon and 3.44 µM with UACC-257 melanoma. For the same compound, the TGI in the assay with HOP-62 NSCLC stood at 18.2 µM; with LOX IMVI melanoma, 13.6 µM; in the assay on M14 melanoma it was 14.5 µM; in the assay on MCF7 breast it was 9.58 µM; in the assay on SK-MEL-28 melanoma, 18.5 µM; in the assay with SK-OV-3 ovarian, 12.6 µM. In addition, the TGI in the assay with SW-620 colon was 13.8 µM; in the assay on UACC-257 melanoma, 10.4 µM.

For the compound `CN(C)c1ccc(/C=C2\C[C@H]3[C@@H]4CC=C5C[C@@H](N6CCCC6)CC[C@]5(C)[C@H]4CC[C@]3(C)[C@H]2O)cc1`, the GI50 in the assay with HOP-62 NSCLC is 2.98 µM; in the assay on LOX IMVI melanoma it was 2.25 µM; in the assay on M14 melanoma, 1.8 µM; in the assay on SK-OV-3 ovarian it was 14.7 µM; in the assay on UACC-257 melanoma, 2.09 µM. The TGI is 7.14 µM and 12.9 µM in the assay on HOP-62 NSCLC; 1.57 µM and 4.72 µM with LOX IMVI melanoma; 1.45 µM and 3.63 µM in the assay on M14 melanoma; 12.5 µM with MCF7 breast; 1.84 µM in the assay on SK-MEL-28 melanoma; 13 µM and > 100 µM in the assay on SK-OV-3 ovarian. For the same compound, the TGI in the assay with SW-620 colon is 3.69 µM; with UACC-257 melanoma, 1.89 µM and 4.02 µM.

With `Nc1ccc(-c2nc3ccc4[nH]ncc4c3c3c2CCCC3)cc1F`, the GI50 in the assay with HOP-62 NSCLC was 1.67 µM; in the assay with LOX IMVI melanoma, 2 µM; in the assay on M14 melanoma, 0.686 µM; in the assay on MCF7 breast, 1.09 µM; with SK-MEL-28 melanoma, 1.81 µM; in the assay on SK-OV-3 ovarian it was 0.367 µM. The GI50 was 0.907 µM with SW-620 colon and 1.92 µM in the assay with UACC-257 melanoma. For the same compound, the TGI worked out at 16.9 µM in the assay on HOP-62 NSCLC; 7.8 µM in the assay with LOX IMVI melanoma; 6.92 µM in the assay with M14 melanoma; 8.92 µM in the assay on MCF7 breast; 6.86 µM in the assay on SK-MEL-28 melanoma; 2.77 µM in the assay with SK-OV-3 ovarian. Moreover, the TGI came out at 7.52 µM in the assay with SW-620 colon and 10.7 µM with UACC-257 melanoma.

Regarding `COc1ccc(OC)c(-c2nc3sccn3c2/C=C2/C(=O)Nc3ccc(Cl)cc32)c1`, the GI50 was 25 µM with HOP-62 NSCLC; 18.2 µM with LOX IMVI melanoma; 23.1 µM with M14 melanoma; 27.2 µM in the assay with MCF7 breast; 20.6 µM with SK-MEL-28 melanoma; 13.6 µM with SK-OV-3 ovarian. Moreover, the GI50 in the assay with SW-620 colon is 31.2 µM; in the assay with UACC-257 melanoma it was 21.4 µM. The TGI stood at 60.5 µM in the assay with HOP-62 NSCLC; 40.5 µM in the assay on LOX IMVI melanoma; 53.8 µM with M14 melanoma; 85 µM in the assay on MCF7 breast; 39.8 µM in the assay with SK-MEL-28 melanoma; 41.5 µM with SK-OV-3 ovarian. The values for the TGI in the assay with SW-620 colon and in the assay with UACC-257 melanoma were greater than 100 µM and 44.3 µM, respectively.

In the case of `S=c1nc(-c2nc(=S)[nH]c3c2CCCCCCCCCC3)c2c([nH]1)CCCCCCCCCC2`, the TGI with HOP-62 NSCLC, in the assay on LOX IMVI melanoma, with M14 melanoma, in the assay with MCF7 breast, in the assay with SK-MEL-28 melanoma and with SK-OV-3 ovarian was greater than 100 µM throughout. In addition, the TGI with SW-620 colon and with UACC-257 melanoma was greater than 100 µM in each case.

With `O=C(c1ccccc1Nc1ccnc(C(F)(F)F)c1)N1CCN(c2cccc(Cl)c2)CC1`, the GI50 in the assay on HOP-62 NSCLC is 28.2 µM; in the assay with LOX IMVI melanoma it was 15.8 µM; in the assay with M14 melanoma, 21.4 µM; with MCF7 breast, 18 µM; with SK-MEL-28 melanoma, 26.5 µM; in the assay on SK-OV-3 ovarian, 28.3 µM. Also, the GI50 in the assay with SW-620 colon was 25 µM; in the assay on UACC-257 melanoma it was 12.8 µM. The TGI in the assay with HOP-62 NSCLC was greater than 100 µM; with LOX IMVI melanoma, 32.2 µM; in the assay with M14 melanoma it was greater than 74.3 µM; in the assay on MCF7 breast it was 80 µM; in the assay with SK-MEL-28 melanoma, greater than 100 µM; in the assay on SK-OV-3 ovarian, 92.5 µM. For the same compound, the TGI was greater than 100 µM in the assay with SW-620 colon and 49.2 µM with UACC-257 melanoma.

As for `O=C(c1cc(O)ccc1O)c1ccccc1C(Cl)(Cl)Cl`, the TGI with DMS 273 small cell lung, in the assay with HOP-62 NSCLC, with M14 melanoma, with SK-OV-3 ovarian, in the assay with SNB-78 CNS and in the assay on SW-620 colon was greater than 100 µM in each case. The same compound came in with a TGI in the assay on UACC-257 melanoma greater than 100 µM.
